This note sets out measurements from patent US20230312605A1, “PYRROLO[2,1-F][1,2,4]TRIAZINES AND PREPARATION AND USES THEREOF” (BioSplice Therapeutics, Inc., priority 2021, published 2023).

For assay [1], the system named is Tau phosphorylation at Thr212 (pThr212) in HEK293T cells transfected with DYRK1A and MAPT. Kind of assay: phosphoTau (Thr212) AlphaLISA tau phosphorylation cell assay. As to conditions: HEK-293T, HEK293T cells transiently transfected with human DYRK1A and MAPT, compound treatment 18-24 hours, read-out: pTau (Thr212) EC50. It counts as cell-based. The method, then: Representative compounds were screened using the assay procedure for tau phosphorylation activity described below.
HEK293T cells (ATCC, CRL3216) cultured in DMEM (Thermo Fisher Scientific, 10566024) supplemented with 10% FBS (Corning, 35-011-CV) and Penicillin/Streptomycin (Thermo Fisher Scientific, 15140163) were seeded in a 75 cm^2 flask at 8.1 × 10^6 cells/flask. The HEK293T cells were then transiently transfected with 5 µg DYRK1A (NM_001396) human untagged clone (OriGene, SC314641) and 2.5 µg MAPT (441 a.a. Tau gene) (NM_005910) human untagged clone (OriGene, TP313312) using Lipofectamine 3000 (Thermo Fisher Scientific, L30000015) and incubated for 20-30 hours in a humidified incubator at 37° C. and 5% CO^2. Post-incubation, HEK293T cells transfected with the DYRK1A and MAPT expression vectors were harvested and seeded in BioCoat poly-D lysine coated 96-well plates (Corning, 354461) at 3 × 10^4 cells/well.
The above synthesized compounds were screened using the cell assay procedure to assess decreased Tau phosphorylation at Thr212 (pThr212) described below.
Each compound was dissolved in DMSO (Sigma-Aldrich, D8418-100 mL) as a 10 mM stock. 10 mM stocks were serially diluted 1:3, 10-point dose-response curve and added to the cells with a final concentration ranging from 20 µM to 1.1 nM. Cells were treated with compounds in duplicate and incubated for 18-24 hours in a humidified incubator at 37° C. and 5% CO^2.
Following the overnight compound treatment, cells were lysed with 1X Alpha Surefire Ultra Lysis Buffer (Perkin Elmer, ALSU-LB-100ML) complemented with 1X Halt Phosphatase Inhibitor Cocktail (Thermo Fisher Scientific, 78427) and 1X Halt Protease Inhibitor Cocktail (Thermo Fisher Scientific, 78438). Lysates were spun down at 12,000 g for 10 min to remove any cellular debris and 5 µL of lysates were dispensed into a 384-well Opti-Plate (Perkin Elmer, 6007290) for the measurement of Tau phosphorylation in the phosphoTau (Thr212) AlphaLISA assay. Donor antibody, biotinylated HT7Tau (Thermo Fisher Scientific, MN1000B), and acceptor antibody, pThr212Tau (Thermo Fisher Scientific, 44740G) were both added to the cell lysates at a final concentration of 3 nM and incubated for 1 hour at room temperature. Following incubation of the lysates with the donor and acceptor antibodies, anti-rabbit IgG(Fc specific) AlphaLISA acceptor beads (Perkin Elmer, AL104C) were added at a 10 ug/mL final concentration and incubated for 1 hour at room temperature protected from light. Lastly, AlphaScreen streptavidin donor beads (PerkinElmer, 6760002) were added at 40 ug/mL final concentration and incubated for 1 hour at room temperature protected from light. Plates were read at Ex= […], and Em=615 nm on the EnVision Multilabel Plate Reader (Perkin Elmer)
phospho-Tau (Thr212) AlphaLISA signal was used to plot, draw the curve fitting, and determine each compound’s EC50 in Prism (GraphPad).

Assay [2] concerns the target recombinant DYRK1A kinase (Homo sapiens (Human), UniProt Q13627). Kind of assay: DYRK1A kinase assay (Ser/Thr 18 peptide Z-lyte FRET assay). It counts as biochemical. Conditions: recombinant DYRK1A 0.25 µg/mL, ATP 15 µM, Ser/Thr peptide 18 4 µM, one hour at room temperature; table head prints EC50, method says IC50. In a few lines:
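Z-lyte FRET format: 1 h room-temperature reaction of 15 µM ATP, 4 µM Ser/Thr 18 peptide and 0.25 µg/mL recombinant human DYRK1A, in duplicate over 11 compound concentrations up to 10 µM. IC50 was derived by non-linear regression of percent phosphorylation calculated from coumarin/fluorescein emission ratios.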

As to `C[C@]1(O)CC[C@@H](Nc2ncc3c(-c4ccc5nccnc5c4)ccn3n2)CC1` [Compound 1394, (1s,4s)-1-Methyl-4-((5-(quinoxalin-6-yl)pyrrolo[2,1-f][1,2,4]triazin-2-yl)amino)cyclohexan-1-ol], the EC50 in assay [1] turned out to be 709 nM; in assay [2], 14 nM.
For `CC(C)(F)CNc1ncc2c(-c3cnc4nccn4c3)ccn2n1` [Compound 216, N-(2-Fluoro-2-methylpropyl)-5-(imidazo[1,2-a]pyrimidin-6-yl)pyrrolo[2,1-f] [1,2,4]triazin-2-amine] the same measures were 455 nM and 12 nM.
Turning to `Cc1nc2ccc(-c3ccn4nc(NCC(C)(C)F)ncc34)nc2n1CC(F)F` [Compound 1068, N-(2-Fluoro-2-methylpropyl)-5-(3-(2,2-difluoroethyl)-2-methyl-3H-imidazo[4,5-b]pyridin-5-yl)pyrrolo[2,1-f][1,2,4]triazin-2-amine], the EC50 in assay [1] stood at 159 nM; in assay [2], 4 nM.
Consider `CO[C@H]1C[C@@H](Nc2ncc3c(-c4ccc5nccn5c4)ccn3n2)C1` [Compound 26, 5-(Imidazo[1,2-a]pyridin-6-yl)-N-(cis-3-methoxycyclobutyl)pyrrolo[2,1-f] [1,2,4]triazin-2-amine], for which the EC50 in assay [1] stood at 238 nM; in assay [2], 11 nM.
The matching figures for `O[C@H]1C[C@@H](Nc2ncc3c(-c4ccc5nccnc5c4)ccn3n2)C1` [Compound 1724, cis-3-((5-(Quinoxalin-6-yl)pyrrolo [2,1-f] [1,2,4]triazin-2-yl)amino) cyclobutan-1-ol]: 305 nM and 11 nM.
For `Cc1nc2ccc(-c3ccn4nc(NCC(C)(C)F)ncc34)nc2n1C(C)C` [Compound 1801, N-(2-Fluoro-2-methylpropyl)-5-(3-isopropyl-2-methyl-3H-imidazo[4,5-b]pyridin-5-yl)pyrrolo [2,1-f][1,2,4]triazin-2-amine] the same measures were 152 nM and 5 nM.
With `CC(C)(F)CNc1ncc2c(-c3ccc4nccn4c3)ccn2n1` [Compound 3, N-(2-Fluoro-2-methylpropyl)-5-(imidazo[1,2-a]pyridin-6-yl)pyrrolo[2,1-f] [1,2,4]triazin-2-amine], the EC50 came to 1840 nM in assay [1] and 23 nM in assay [2].
On to `CO[C@H]1CC[C@@H](Nc2ncc3c(-c4ccc5nccnc5c4)ccn3n2)CC1` [Compound 1395, N-(cis-4-Methoxycyclohexyl)-5-(quinoxalin-6-yl)pyrrolo[2,1-f][1,2,4] triazin-2-amine], for which the EC50 in assay [1] was 380 nM; in assay [2] it was 11 nM.
For `CO[C@H]1CC[C@@H](Nc2ncc3c(-c4cnc5nccn5c4)ccn3n2)CC1` [Compound 259, 5-(Imidazo[1,2-a]pyrimidin-6-yl)-N-(cis-4-methoxycyclohexyl)pyrrolo[2,1-f][1,2,4]triazin-2-amine] the same measures were 150 nM and 7 nM.
Regarding `O[C@H]1CC[C@@H](Nc2ncc3c(-c4ccc5nccnc5c4)ccn3n2)CC1` [Compound 1393, cis-4-((5-(Quinoxalin-6-yl)pyrrolo[2,1-f][1,2,4]triazin-2-yl)amino) cyclohexan-1-ol], the results for the EC50 in assay [1] and in assay [2] were 718 nM and 23 nM, respectively.
Regarding `Cc1nc2ncc(-c3ccn4nc(NCC(C)(C)F)ncc34)cc2n1C(C)C` [Compound 571, N-(2-Fluoro-2-methylpropyl)-5-(1-isopropyl-2-methyl-1H-imidazo[4,5-b]pyridin-6-yl)pyrrolo[2,1-f] [1,2,4]triazin-2-amine], the EC50 in assay [1] stood at 725 nM; in assay [2], 11 nM.
For `c1cnc2cc(-c3ccn4nc(NC5CC6(COC6)C5)ncc34)ccc2n1` [Compound 1418, 5-(Quinoxalin-6-yl)-N-(2-oxaspiro[3.3]heptan-6-yl)pyrrolo[2,1-f][1,2,4] triazin-2-amine] the same measures were 212 nM and 11 nM.
The matching figures for `FC1(F)CC2(CC(Nc3ncc4c(-c5cnc6nccn6c5)ccn4n3)C2)C1` [Compound 281, N-(6,6-Difluorospiro[3.3]heptan-2-yl)-5-(imidazo[1,2-a]pyrimidin-6-yl) pyrrolo[2,1-f] [1,2,4]triazin-2-amine]: 70 nM and 3 nM.
The matching figures for `c1cn2cc(-c3ccn4nc(NC5COC5)ncc34)ccc2n1` [Compound 65, 5-(Imidazo[1,2-a]pyridin-6-yl)-N-(oxetan-3-yl)pyrrolo[2,1-f][1,2,4]triazin-2-amine]: 828 nM and 25 nM.
As to `c1cn2cc(-c3ccn4nc(NC5CC6(COC6)C5)ncc34)cnc2n1` [Compound 282, 5-(Imidazo[1,2-a]pyrimidin-6-yl)-N-(2-oxaspiro[3.3]heptan-6-yl)pyrrolo[2,1-f][1,2,4]triazin-2-amine], the figures for the EC50 in assay [1] and in assay [2] were 172 nM and 7 nM, respectively.
Consider `FC1(F)CCC(Nc2ncc3c(-c4cnc5nccn5c4)ccn3n2)CC1` [Compound 256, N-(4,4-Difluorocyclohexyl)-5-(imidazo[1,2-a]pyrimidin-6-yl)pyrrolo[2,1-f] [1,2,4]triazin-2-amine], for which the EC50 in assay [1] came out at 220 nM; in assay [2], 5 nM.
`N[C@H]1CC[C@@H](Nc2ncc3c(-c4ccc5ncccc5c4)ccn3n2)CC1` [Compound 1332, cis-N^1-(5-(Quinolin-6-yl)pyrrolo[2,1-f][1,2,4]triazin-2-yl)cyclohexane-1,4-diamine]: the results for the EC50 in assay [1] and in assay [2] were 524 nM and 20 nM, respectively.
